How the values were obtained:
TEAD3 = TEAD3 (Homo sapiens, UniProt Q99594); assay: Thermal shift assay TEAD3; format: binding
Method in brief: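 TEAD3 protein at 0.1 mg/ml final melted with Protein Thermal Shift dye on a qPCR instrument. Compounds tested at 10 μM and 1 μM in PBS, final DMSO 0.1%.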

NCI-H226 cells = assay: Cell growth assay (CellTiter-Glo); format: cell-based, human; details: Homo sapiens, NCI-H226, 168 h, 7 days treatment, CellTiter-Glo luminescence, read-out: H226 CTG IC50
TEAD1 = TEAD1 (Homo sapiens, UniProt P28347); assay: Thermal shift assay TEAD1; format: binding
Chain of TEAD1 (P28347 whole entry, species assumed): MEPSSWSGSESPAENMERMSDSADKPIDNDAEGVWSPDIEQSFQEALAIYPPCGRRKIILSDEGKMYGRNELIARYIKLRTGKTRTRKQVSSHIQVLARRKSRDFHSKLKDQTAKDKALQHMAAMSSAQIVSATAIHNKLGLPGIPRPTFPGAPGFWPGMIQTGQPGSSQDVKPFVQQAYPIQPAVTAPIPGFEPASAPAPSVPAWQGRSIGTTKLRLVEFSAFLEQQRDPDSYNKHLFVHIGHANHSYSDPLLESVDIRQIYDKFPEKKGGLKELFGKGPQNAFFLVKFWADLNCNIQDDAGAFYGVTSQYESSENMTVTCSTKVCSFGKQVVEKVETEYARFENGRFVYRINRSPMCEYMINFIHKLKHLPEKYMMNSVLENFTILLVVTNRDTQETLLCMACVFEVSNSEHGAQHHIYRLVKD
Method in brief: (§1)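 Compounds tested at 10 μM and 1 μM, 0.1% DMSO final, with TEAD1 at 0.2 mg/ml or TEAD2 at 0.08 mg/ml final. Melting monitored with Protein Thermal Shift dye on a qPCR instrument.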

TEAD2 = TEAD2 (Homo sapiens, UniProt Q15562); assay: Thermal shift assay TEAD2; format: binding
Chain of TEAD2 (Q15562 whole entry, species assumed): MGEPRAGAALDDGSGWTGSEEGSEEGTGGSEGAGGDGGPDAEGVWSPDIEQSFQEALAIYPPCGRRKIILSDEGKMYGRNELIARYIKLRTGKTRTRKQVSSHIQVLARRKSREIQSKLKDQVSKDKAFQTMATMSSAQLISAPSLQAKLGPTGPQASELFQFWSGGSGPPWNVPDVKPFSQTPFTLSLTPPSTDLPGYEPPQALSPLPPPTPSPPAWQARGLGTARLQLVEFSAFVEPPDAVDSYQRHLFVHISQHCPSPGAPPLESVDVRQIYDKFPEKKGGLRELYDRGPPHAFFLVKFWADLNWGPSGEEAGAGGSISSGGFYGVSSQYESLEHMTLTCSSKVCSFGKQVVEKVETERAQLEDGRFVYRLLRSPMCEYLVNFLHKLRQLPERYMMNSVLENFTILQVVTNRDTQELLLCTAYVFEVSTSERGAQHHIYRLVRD
Method in brief: as §1

TEAD4 = TEAD4 (Homo sapiens, UniProt Q15561); assay: Thermal shift assay TEAD4; format: binding
Chain of TEAD4 (Q15561 whole entry, species assumed): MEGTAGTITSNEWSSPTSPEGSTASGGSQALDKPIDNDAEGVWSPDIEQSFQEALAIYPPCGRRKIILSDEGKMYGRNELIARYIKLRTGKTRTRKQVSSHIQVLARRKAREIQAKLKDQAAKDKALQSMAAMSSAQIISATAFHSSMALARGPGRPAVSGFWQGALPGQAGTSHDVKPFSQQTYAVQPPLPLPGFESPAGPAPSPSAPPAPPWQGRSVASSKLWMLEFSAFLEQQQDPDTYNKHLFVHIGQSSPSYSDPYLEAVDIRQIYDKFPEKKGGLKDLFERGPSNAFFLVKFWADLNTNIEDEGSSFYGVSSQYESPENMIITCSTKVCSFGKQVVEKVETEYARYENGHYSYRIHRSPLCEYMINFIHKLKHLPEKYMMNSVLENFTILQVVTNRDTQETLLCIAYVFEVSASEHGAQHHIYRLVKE
Method in brief: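 Protein thermal shift with TEAD4 at 0.1 mg/ml final, Protein Thermal Shift dye, compounds at 10 μM or 1 μM in PBS with 0.1% DMSO final. Melt reactions assembled on ice and run on a qPCR instrument.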

Chain of TEAD3 (Q99594 whole entry, species assumed): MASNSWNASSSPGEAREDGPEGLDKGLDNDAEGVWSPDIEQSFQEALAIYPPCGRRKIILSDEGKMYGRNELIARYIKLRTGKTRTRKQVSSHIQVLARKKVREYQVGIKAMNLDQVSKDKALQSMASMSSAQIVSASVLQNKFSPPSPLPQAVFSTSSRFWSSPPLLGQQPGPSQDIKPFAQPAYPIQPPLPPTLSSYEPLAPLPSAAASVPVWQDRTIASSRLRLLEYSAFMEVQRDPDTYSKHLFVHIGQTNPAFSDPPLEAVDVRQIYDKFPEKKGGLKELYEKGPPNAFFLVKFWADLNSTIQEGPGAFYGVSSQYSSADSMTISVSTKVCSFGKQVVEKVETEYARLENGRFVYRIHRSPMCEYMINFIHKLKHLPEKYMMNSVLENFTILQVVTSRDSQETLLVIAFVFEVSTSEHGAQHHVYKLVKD

Compound | TEAD3 ΔTm (TEAD3) | IC50 (NCI-H226 cells) | TEAD1 ΔTm (TEAD1) | TEAD2 ΔTm (TEAD2) | TEAD4 ΔTm (TEAD4)
Cn1cc2cc(Oc3ccc(C(F)(F)F)cc3)cc(C3C[C@H]3C(=O)N3[C@@H]4CC[C@H]3C[C@@H](O)C4)c2n1 (single isomer, unassigned) [Example 104] | 2.0 °C | < 100 nM | 6.5 °C | 9.0 °C | 8.1 °C
Cn1cc2cc(Oc3ccc(C(F)(F)F)cc3)cc(C3C[C@H]3C(=O)N3[C@@H]4CC[C@H]3C[C@H](O)C4)c2n1 (single isomer, unassigned) [Example 105] | 2.2 °C | < 100 nM | 6.8 °C | 8.2 °C | 8.1 °C
Cn1cc2cc(Oc3ccc(C(F)(F)F)cc3)cc([C@@H]3C[C@H]3C(=O)N3CC4CC(C3)N4)c2n1 (single isomer, unassigned) [Example 123] | 1.8 °C | < 100 nM | 7.7 °C | 9.1 °C | 9.2 °C
CN(C#N)C(=O)[C@@H]1C[C@H]1c1cc(Oc2ccc(C(F)(F)F)cc2)cc2cn(C)nc12 (single isomer, unassigned) [Example 124] | 1.0 °C | 1000 to 30000 nM | 6.0 °C | 9.8 °C | 7.7 °C
Cn1cc2cc(Oc3ccc(C(F)(F)F)c(F)c3)cc([C@@H]3C[C@H]3C(=O)N3CC(O)C3)c2n1 (single isomer, unassigned) [Example 132] | 13.9 °C | < 100 nM | 10.9 °C | 15.8 °C | 13.7 °C
Cn1cc2cc(Oc3ccc(C(F)(F)F)cc3)cc([C@@H]3C[C@H]3C(=O)N=S(C)(C)=O)c2n1 (single isomer, unassigned) [Example 134] | 1.5 °C | < 100 nM | 6.8 °C | 6.0 °C | 5.8 °C
Cn1cc2cc(Oc3ccc(C(F)(F)F)cc3)cc([C@@H]3C[C@H]3C(=O)N3CCC34CC(=O)C4)c2n1 (single isomer, unassigned) [Example 135] | 18.0 °C | 100 to 500 nM | 25.0 °C | 25.0 °C | 6.9 °C
Cn1cc2cc(Oc3ccc(Cl)cc3)cc([C@@H]3C[C@H]3C(=O)N3C[C@@H]4C[C@H]3C[C@@H]4O)c2n1 (single isomer, unassigned) [Example 139] | 2.8 °C | < 100 nM | 5.5 °C | 9.2 °C | 7.6 °C

Further lines, results first:

TEAD3 ΔTm (TEAD3) | IC50 (NCI-H226 cells) | TEAD1 ΔTm (TEAD1) | TEAD2 ΔTm (TEAD2) | TEAD4 ΔTm (TEAD4) | Compound
8.8 °C | < 100 nM | 7.9 °C | 9.1 °C | 8.3 °C | Cn1cc2nc(Oc3ccc(C(F)(F)F)cc3)cc([C@H]3C[C@@H]3C(=O)N3CC(O)C3)c2n1 (single isomer, unassigned) [Example 108b]
1.9 °C | < 100 nM | 8.4 °C | 10.2 °C | 10.1 °C | CO[C@@H]1CN(C(=O)[C@@H]2C[C@H]2c2cc(Oc3ccc(C(F)(F)F)cc3)cc3cn(C)nc23)C[C@H]1O (single isomer, unassigned) [Example 112b]
2.0 °C | < 100 nM | 7.9 °C | 10.6 °C | 8.9 °C | Cn1cc2cc(Oc3ccc(C(F)(F)F)cc3)cc([C@@H]3C[C@H]3C(=O)N3CC4CC3C(=O)N4)c2n1 (single isomer, unassigned) [Example 121]
9.3 °C | < 100 nM | 9.1 °C | 11.9 °C | 9.6 °C | Cn1cc2cc(Oc3ccc(C(F)(F)F)cc3)cc([C@@H]3C[C@H]3C(=O)NCCO)c2n1 (single isomer, unassigned) [Example 125]

From patent publication US12103915B2, “TEAD inhibitors and methods of uses thereof” (Insilico Medicine IP Limited, priority 2022, dated 2024)
